Data reported in PMC9146474, “3-(((1S,3S)-3-((R)-Hydroxy(4-(trifluoromethyl)phenyl)methyl)-4-oxocyclohexyl)methyl)pentane-2,4-dione: Design and Synthesis of New Stereopure Multi-Target Antidiabetic Agent” (Molecules, 2022).
Each block holds one compound with its values, some of them ahead of it.

Experiments:
α-glucosidase = α-glucosidase (Saccharomyces cerevisiae, UniProt P53341); assay type: biochemical
Procedure: The α-glucosidase inhibitory activity on the S,S,R-5 was performed as per the reported protocols. […] The α-glucosidase solution (0.5 units/mL) was prepared in phosphate buffer (0.1 M, 6.90 pH). p-Nitrophenyl-α-D-glucopyranoside (5 mM) was added as substrate solution to the buffer solution. Different concentrations of the compound, i.e., 500, 250, 125, 62.5, and 31.25 μM were prepared. The enzyme solutions were mixed with the compound’s solution and were incubated for 15 min at 37 °C. To these solutions were added the pre-prepared substrate solution and the repetition of incubation. The final reaction was completed with the addition of sodium carbonate solution (0.2 M, 80 μL). The combined solution excluding the α-glucosidase was used as a blank solution. The absorbances of the solutions were recorded at 405 nm. The observations were repeated three times. The percent inhibitions at each concentration and the IC50 values were calculated according to the standard formula [48].

albino mice = conditions: mouse, in vivo
Procedure: We also tested the toxicity profile of our compound S,S,R-5 by using the simple acute toxicity test in experimental albino mice. The mice were acquired and used in the animal house of our university as per the standard guidelines of the departmental ethical committee. As per the standard procedure, we gave various concentrations of compound S,S,R-5 to albino mice and observed them for the next 72 h.

[1] = DPPH free radical scavenging assay (antioxidant assay)
Procedure: To supplement the role of free radicals in diabetes, the free radical scavenging potential of compound S,S,R-5 was also determined as per the standard method. Different concentrations of the stereopure compound were prepared and DPPH solution in methanol (0.004%) were added to it. The solutions were incubated for half an hour. The absorbances of the solutions were recorded at 517 nm. The observations were repeated three times. The percent inhibitions at each concentration and the IC50 values were calculated according to the standard formula [52].

α-amylase = assay: In-vitro α-amylase inhibition; assay type: biochemical
Procedure: The potential of stereopure S,S,R-5 against the α-amylase was also determined as per the protocols. The enzyme solution was prepared in the phosphate buffer and was mixed with different concentrations of the compound to allow the reaction. All the solutions were incubated as per the method. Dinitrosalicylic acid was added to the compound and standard solutions. The respective solutions were heated in water baths for a few minutes. The absorbances of the solutions were recorded at 656 nm. The observations were repeated three times. The percent inhibitions at each concentration and the IC50 values were calculated according to the standard formula [50].

[2] = molecular target: T1, protein tyrosine phosphatase 1B (PTP-1B) (Homo sapiens, UniProt P18031); assay: Protein tyrosine phosphatase 1B inhibition; assay type: biochemical; conditions: for inhibition at 31.25 µM: 31.25 μM/mL; for inhibition at 31.25 µM / inhibition at 62.5 µM / inhibition at 125 µM / inhibition at 250 µM: read-out: PTP-1B Percent Inhibition (converted); for inhibition at 62.5 µM: 62.5 μM/mL; for inhibition at 125 µM: 125 μM/mL; for inhibition at 250 µM: 250 μM/mL; for inhibition at 500 µM: 500 μM/mL
T1 sequence (P18031 1-435): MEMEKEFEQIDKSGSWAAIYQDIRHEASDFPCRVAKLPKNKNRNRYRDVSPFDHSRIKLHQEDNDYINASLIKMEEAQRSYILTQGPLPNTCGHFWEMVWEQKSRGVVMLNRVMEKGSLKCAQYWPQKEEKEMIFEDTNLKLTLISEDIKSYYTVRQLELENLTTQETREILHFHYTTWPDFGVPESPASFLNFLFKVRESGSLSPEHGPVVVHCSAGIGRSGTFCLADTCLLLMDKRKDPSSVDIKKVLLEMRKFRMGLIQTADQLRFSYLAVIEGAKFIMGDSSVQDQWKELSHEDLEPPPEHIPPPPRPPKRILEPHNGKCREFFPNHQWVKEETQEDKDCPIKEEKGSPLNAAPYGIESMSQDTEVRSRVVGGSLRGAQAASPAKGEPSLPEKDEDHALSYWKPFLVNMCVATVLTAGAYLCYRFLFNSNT
Procedure: A buffer solution with pH 7 of 3,3-dimethyl glutarate was used. […] All the solutions were incubated at 27 °C for 40 min. The absorbances of the solutions were recorded at 405 nm. The observations were repeated three times. The percent inhibitions at each concentration and the IC50 values were calculated according to the standard formula.

[3] = 500 μM/mL, listed as minor diastereomer (S,S,R-5)

Chain of α-glucosidase (P53341 whole entry): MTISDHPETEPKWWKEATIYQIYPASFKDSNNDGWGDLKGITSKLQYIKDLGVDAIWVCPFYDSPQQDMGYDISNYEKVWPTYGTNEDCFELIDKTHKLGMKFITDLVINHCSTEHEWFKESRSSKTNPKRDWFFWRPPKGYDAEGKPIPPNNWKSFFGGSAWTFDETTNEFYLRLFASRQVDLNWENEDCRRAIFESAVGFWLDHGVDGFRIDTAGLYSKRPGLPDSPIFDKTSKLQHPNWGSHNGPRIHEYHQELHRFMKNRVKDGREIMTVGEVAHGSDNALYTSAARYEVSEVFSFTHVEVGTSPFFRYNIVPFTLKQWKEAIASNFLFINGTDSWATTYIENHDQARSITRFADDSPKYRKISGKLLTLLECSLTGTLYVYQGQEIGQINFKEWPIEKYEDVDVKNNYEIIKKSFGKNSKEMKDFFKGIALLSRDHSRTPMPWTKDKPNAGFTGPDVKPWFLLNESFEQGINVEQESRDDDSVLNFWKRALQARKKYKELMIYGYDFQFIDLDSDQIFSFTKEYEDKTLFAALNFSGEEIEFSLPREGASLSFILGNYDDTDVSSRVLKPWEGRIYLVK

Compound: C[C@H]1O[C@H](O[C@H]2[C@H](O)[C@@H](O)[C@@H](O[C@H]3[C@H](O)[C@@H](O)C(O)O[C@@H]3CO)O[C@@H]2CO)[C@H](O)[C@@H](O)[C@@H]1N[C@H]1C=C(CO)[C@@H](O)[C@H](O)[C@H]1O (some centres unmarked) [Acarbose]
- α-Glucosidase % Inhibition (α-glucosidase): 95.20 ± 0.15 91.17 ± 0.53 86.98 ± 0.85 81.20 ± 0.65 77.80 ± 0.37%
- α-Glucosidase Percent Inhibition (α-glucosidase): 95.20 ± 0.15 91.17 ± 0.53 86.98 ± 0.85 81.20 ± 0.65 77.80 ± 0.37%

Compound: CC(=O)C(C[C@H]1CCC(=O)[C@H]([C@@H](O)c2ccc(C(F)(F)F)cc2)C1)C(C)=O [S,S,R-5, 3-(((1S,3S)-3-((R)-hydroxy(4-(trifluoromethyl)phenyl)methyl)-4-oxocyclohexyl)methyl)pentane-2,4-dione]
- Acute toxicity: behavioral changes or lethality (albino mice): no unwanted behavioral changes or lethality
- IC50 [1]: 2360 ± 100 nM
- DPPH Percent Inhibition ([1]; 31.25 μM/mL): 71.90 ± 0.45%
- DPPH Percent Inhibition ([1]; 62.5 μM/mL): 76.00 ± 0.30%
- DPPH Percent Inhibition ([1]; 125 μM/mL): 81.90 ± 0.60%
- DPPH Percent Inhibition ([1]; 250 μM/mL): 87.45 ± 0.90%
- IC50 (α-amylase): 4580 ± 140 nM
- α-Amylase Percent Inhibition (α-amylase; 31.25 μM/mL): 58.47 ± 0.56%
- α-Amylase Percent Inhibition (α-amylase; 62.5 μM/mL): 62.28 ± 0.57%
- α-Amylase Percent Inhibition (α-amylase; 125 μM/mL): 68.90 ± 0.96%
- α-Amylase Percent Inhibition (α-amylase; 250 μM/mL): 73.08 ± 0.47%
- IC50 [2]: 910 ± 100 nM
- inhibition at 31.25 µM [2]: 73.7%
- inhibition at 62.5 µM [2]: 76.2%
- inhibition at 125 µM [2]: 79.6%
- inhibition at 250 µM [2]: 84.4%

- inhibition at 31.25 µM [2]: 76%
- inhibition at 62.5 µM [2]: 78.3%
- inhibition at 125 µM [2]: 82.3%
- inhibition at 250 µM [2]: 87.2%
- inhibition at 500 µM [2]: 90.83 ± 0.47%
Compound: C[C@H]1[C@H](C)CC[C@]2(C(=O)O)CC[C@]3(C)C(=CC[C@@H]4[C@@]5(C)CC[C@H](O)C(C)(C)[C@@H]5CC[C@]43C)[C@H]12 [Ursolic acid, reference compound]

Compound: CC(=O)C(CC1CCC(=O)C(C(O)c2ccc(C(F)(F)F)cc2)C1)C(C)=O [minor (S,S,R-5)]
- DPPH % Inhibition [1, 3]: 70.21%
- α-Amylase % Inhibition (α-amylase; [3]): 72.65%
- inhibition at 500 µM [2]: 65.4%
